Results from patent US20260374739A1, “SMALL MOLECULAR WEIGHT CHEMICAL COMPOUND TO ANTAGONIZE EPH-EPHRIN TETRAMERIZATION AND INHIBIT BIDIRECTIONAL SIGNALING” (THE BOARD OF REGENTS OF THE UNIVERSITY OF TEXAS SYSTEM, priority 2022, published 2026).
Values joined by “and” are separate entries in the source; they are usually repeats but may differ in a detail not shown here. Identical values can stand only once. Like-named read-outs stand apart in the source and are kept apart here. One block for each compound: values may come before it.

How the values were obtained:
EphrinB2-EphB2 [1] = target: T1, EphrinB2-EphB2 (Homo sapiens, UniProt P29323); assay: Octet tetramerization inhibition, immobilized human EphrinB2 binding to 50 nM soluble human EphB2
T1 construct: soluble human EphB1-His, EphB2-His, and EphB4-His ectodomains; commercially available human EphrinB1-Fc (EB1), EphrinB2-Fc (EB2), and EphrinB3-Fc (EB3) ectodomain proteins; purchased
T1 sequence (P29323 19-543 limits assumed): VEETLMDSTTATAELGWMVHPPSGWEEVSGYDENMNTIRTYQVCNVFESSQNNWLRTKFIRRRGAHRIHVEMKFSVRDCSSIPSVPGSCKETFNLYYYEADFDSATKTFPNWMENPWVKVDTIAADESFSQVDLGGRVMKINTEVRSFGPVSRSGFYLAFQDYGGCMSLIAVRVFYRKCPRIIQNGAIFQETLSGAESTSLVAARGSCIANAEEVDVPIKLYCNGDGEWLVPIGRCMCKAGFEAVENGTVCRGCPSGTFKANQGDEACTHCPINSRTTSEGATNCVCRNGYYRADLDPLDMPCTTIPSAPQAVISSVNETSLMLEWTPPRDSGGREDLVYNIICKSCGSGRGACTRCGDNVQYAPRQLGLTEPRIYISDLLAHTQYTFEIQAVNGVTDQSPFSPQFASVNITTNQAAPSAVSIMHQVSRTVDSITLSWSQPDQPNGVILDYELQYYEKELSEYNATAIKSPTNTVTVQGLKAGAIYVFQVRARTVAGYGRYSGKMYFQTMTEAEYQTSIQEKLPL

EphrinB2-EphB1 = target: T2, EphrinB2-EphB1 (Homo sapiens, UniProt P54762); assay: Octet 80 sec association/500 sec dissociation, immobilized human EphrinB2-Fc binding to soluble human EphB1-His; settings: for EphB1 Inhibition Percent, Inhibition of Association ONLY: at 3.2 μM and 80 seconds; for EphB1 Inhibition Percent, Inhibition of Association ONLY / EphB1 Inhibition Percent, Inhibition of Association-Dissociation: immobilized human EphrinB2, 25 nM soluble human EphB1; for EphB1 Inhibition Percent, Inhibition of Association-Dissociation: at 3.2 μM and 580 seconds; for inhibition: highest dose, typically 3.2 μM
T2 construct: soluble human EphB1-His, EphB2-His, and EphB4-His ectodomains; commercially available human EphrinB1-Fc (EB1), EphrinB2-Fc (EB2), and EphrinB3-Fc (EB3) ectodomain proteins; purchased
T2 sequence (P54762 18-540 limits assumed): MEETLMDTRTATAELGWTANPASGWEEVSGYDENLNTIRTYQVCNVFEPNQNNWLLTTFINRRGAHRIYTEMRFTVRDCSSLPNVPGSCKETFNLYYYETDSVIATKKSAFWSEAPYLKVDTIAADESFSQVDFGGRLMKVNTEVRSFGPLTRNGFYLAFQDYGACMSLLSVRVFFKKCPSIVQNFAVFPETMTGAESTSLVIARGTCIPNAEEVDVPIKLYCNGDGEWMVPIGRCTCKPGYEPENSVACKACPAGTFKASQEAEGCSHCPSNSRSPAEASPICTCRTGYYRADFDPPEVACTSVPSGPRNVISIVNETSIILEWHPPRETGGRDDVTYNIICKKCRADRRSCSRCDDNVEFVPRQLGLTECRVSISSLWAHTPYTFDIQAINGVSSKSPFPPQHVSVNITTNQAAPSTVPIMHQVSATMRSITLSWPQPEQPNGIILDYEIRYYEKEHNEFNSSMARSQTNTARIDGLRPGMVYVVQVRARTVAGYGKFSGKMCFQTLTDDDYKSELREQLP
Summary of the method: (§1)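 EphrinB2-Fc captured on AHC biosensors, then soluble His-tagged EphB ectodomain (25 nM for % inhibition runs) associated 80 s and dissociated 500 s in PBS, 0.05% Tween-20, 1% DMSO ± compound. Compounds tested at 0.1–3.2 μM with a 10 μM max standard; IC50 from AUC of full traces or at 75 s and 135 s.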

EphrinB2-EphB2 [2] = target: T1, EphrinB2-EphB2; assay: Octet 80 sec association/500 sec dissociation, immobilized human EphrinB2-Fc binding to soluble human EphB2-His; settings: for EphB2 Inhibition Percent, Inhibition of Association ONLY: at 3.2 μM and 80 seconds; for EphB2 Inhibition Percent, Inhibition of Association ONLY / EphB2 Inhibition Percent, Inhibition of Association-Dissociation: immobilized human EphrinB2, 25 nM soluble human EphB2; for EphB2 Inhibition Percent, Inhibition of Association-Dissociation: at 3.2 μM and 580 seconds; for inhibition at 3.2 µM / IC50 / inhibition: EphB2; for inhibition at 3.2 µM: 25 nM EphB2, 3.2 μM compound, A20-I as max control, 0* = less than 0, no inhibition; for inhibition: highest dose, typically 3.2 μM
Summary of the method: as §1

[3] = Absolute AUC/IC50, Table A, EphrinB2-EphB2
[4] = Absolute Association IC50 (300 sec), Table A, EphrinB2-EphB2
[5] = Absolute Dissociation IC50 (450 sec), Table A, EphrinB2-EphB2
[6] = Relative AUC/IC50, Table A, EphrinB2-EphB2, compound 7: association only
[7] = Relative Association IC50 (300 sec), Table A, EphrinB2-EphB2
[8] = Relative Dissociation IC50 (450 sec), Table A, EphrinB2-EphB2
[9] = tetramerization inhibitor IC50 (relative), association step, surmountable tetramer
[10] = EphB1, 25 nM EphB1, 3.2 μM compound, A20-I as max control, 0* = less than 0, no inhibition, read-out: % Inhibition: Association + Dissociation (160 sec)

Structure (SMILES): O=S1(=O)CCN(Cc2ccc(O)c3ncccc23)CC1 [Compound 15, 4-((8-hydroxyquinolin-1-ium-5-yl)methyl)thiomorpholin-4-ium 1,1-dioxide chloride]
IC50 (EphrinB2-EphB2 [1]; [3]): > 1600 nM
IC50 (EphrinB2-EphB2 [1]; [4]): > 1600 nM
IC50 (EphrinB2-EphB2 [1]; [5]): > 1600 nM
IC50 (EphrinB2-EphB2 [1]; [6]): 620 nM
IC50 (EphrinB2-EphB2 [1]; [7]): > 1600 nM
IC50 (EphrinB2-EphB2 [1]; [8]): 1150 nM
EphB1 Inhibition Percent, Inhibition of Association ONLY (EphrinB2-EphB1): 16.8%
EphB1 Inhibition Percent, Inhibition of Association-Dissociation (EphrinB2-EphB1): 28.6%
EphB2 Inhibition Percent, Inhibition of Association ONLY (EphrinB2-EphB2 [2]): 33.8%
EphB2 Inhibition Percent, Inhibition of Association-Dissociation (EphrinB2-EphB2 [2]): 46.4%

Structure (SMILES): O=[N+]([O-])c1cc(CN2CCS(=O)(=O)CC2)c2cccnc2c1O [Compound 20, 4-((8-hydroxy-7-nitroquinolin-5-yl)methyl)thiomorpholine 1,1-dioxide]
IC50 (EphrinB2-EphB2 [1]; [3]): > 3200 nM
IC50 (EphrinB2-EphB2 [1]; [4]): > 3200 nM
IC50 (EphrinB2-EphB2 [1]; [5]): > 3200 nM
IC50 (EphrinB2-EphB2 [1]; [7]): 2140 nM
IC50 (EphrinB2-EphB2 [1]; [8]): 2090 nM
IC50 (EphrinB2-EphB2 [1]; [9]): > 3000 nM
inhibition at 3.2 µM (EphrinB2-EphB1; [10]): 36%
inhibition at 3.2 µM (EphrinB2-EphB1; EphB1, 25 nM EphB1, 3.2 μM compound, A20-I as max control, 0* = less than 0, no inhibition, read-out: % Inhibition: Association ONLY (80 sec)): 24%
inhibition of EphB1-EphrinB2 binding (EphrinB2-EphB1; association step, general): 25%
inhibition at 3.2 µM (EphrinB2-EphB2 [2]; read-out: % Inhibition: Association + Dissociation (160 sec)): 51.7%
inhibition at 3.2 µM (EphrinB2-EphB2 [2]; read-out: % Inhibition: Association ONLY (80 sec)): 36.7%
inhibition of EphB2-EphrinB2 binding (EphrinB2-EphB2 [2]; association step, general): 40%

Structure (SMILES): Oc1ccc(CN2CCN(c3ccc(Br)cc3)CC2)c2cccnc12 [Compound 26, 5-((4-(4-bromophenyl)piperazin-1-yl)methyl)quinolin-8-ol]
IC50 (EphrinB2-EphB2 [1]; [9]): 1200 nM
% Inhibition: Association + Dissociation (160 sec) (EphrinB2-EphB1; EphB1, 25 nM EphB1, 3.2 μM compound, A20-I as max control, 0* = less than 0, no inhibition, listed as QPB4): 35.0%
inhibition at 3.2 µM (EphrinB2-EphB1; [10]): 30.6%
EphB1 Inhibition Percent, Inhibition of Association ONLY (EphrinB2-EphB1): 11.2%
EphB1 Inhibition Percent, Inhibition of Association-Dissociation (EphrinB2-EphB1): 36.6%
EphB2 Inhibition Percent, Inhibition of Association ONLY (EphrinB2-EphB2 [2]): 35.9%
EphB2 Inhibition Percent, Inhibition of Association-Dissociation (EphrinB2-EphB2 [2]): 60.1%

inhibition of unsurmountable tetramer (EphrinB2-EphB2 [1]): 100%
IC50 (EphrinB2-EphB2 [1]; [3]): 360 nM and 530 nM and 590 nM and 510 nM
IC50 (EphrinB2-EphB2 [1]; [4]): 380 nM and 580 nM and 680 nM and 780 nM
IC50 (EphrinB2-EphB2 [1]; [5]): 350 nM and 400 nM and 580 nM and 630 nM
IC50 (EphrinB2-EphB2 [1]; [6]): 220 nM and 370 nM and 230 nM and 320 nM
IC50 (EphrinB2-EphB2 [1]; [7]): 300 nM and 330 nM (2×) and 400 nM
IC50 (EphrinB2-EphB2 [1]; [8]): 300 nM and 420 nM and 370 nM
IC50 (EphrinB2-EphB2 [1]; [9]): ~300 nM
IC50 (EphrinB2-EphB2 [1]; tetramerization inhibitor IC50, surmountable tetramer): ~300 nM
% Inhibited (AUC), Association + Dissociation (EphrinB2-EphB1; EphB1, 0-160 sec, 50 nM, 10 μM compound, Table 4): 38.6%
% Inhibited (AUC), Association (EphrinB2-EphB1; EphB1, 50 nM, 10 μM compound, Table 4): 24.7%
IC50 (EphrinB2-EphB1; EphB1, Association (75″), read-out: Absolute IC50): > 3200 nM
IC50 (EphrinB2-EphB1; EphB1, Association (75″), read-out: Relative IC50): 100 nM
IC50 (EphrinB2-EphB1; EphB1, Association (AUC), read-out: Absolute IC50): > 3200 nM
IC50 (EphrinB2-EphB1; EphB1, Association (AUC), read-out: Relative IC50): 100 nM
IC50 (EphrinB2-EphB1; EphB1, Dissociation (135″), read-out: Absolute IC50): 360 nM
IC50 (EphrinB2-EphB1; EphB1, Dissociation (135″), read-out: Relative IC50): 80 nM
IC50 (EphrinB2-EphB1; EphB1, Full AUC, read-out: Absolute IC50): 500 nM
IC50 (EphrinB2-EphB1; EphB1, Full AUC, read-out: Relative IC50): 170 nM
inhibition (EphrinB2-EphB1; EphB1, read-out: Association (% Inhibited (AUC))): 39.1%
inhibition (EphrinB2-EphB1; EphB1, read-out: Association + Dissociation (% Inhibited (AUC))): 53.1%
IC50 (EphrinB2-EphB2 [2]; Association (75″), read-out: Absolute IC50): 320 nM
IC50 (EphrinB2-EphB2 [2]; Association (75″), read-out: Relative IC50): 280 nM
IC50 (EphrinB2-EphB2 [2]; Association (AUC), read-out: Absolute IC50): 360 nM
IC50 (EphrinB2-EphB2 [2]; Association (AUC), read-out: Relative IC50): 280 nM
IC50 (EphrinB2-EphB2 [2]; Dissociation (135″), read-out: Absolute IC50): 250 nM
IC50 (EphrinB2-EphB2 [2]; Dissociation (135″), read-out: Relative IC50): 230 nM
IC50 (EphrinB2-EphB2 [2]; Full AUC, read-out: Absolute IC50): 200 nM
IC50 (EphrinB2-EphB2 [2]; Full AUC, read-out: Relative IC50): 180 nM
inhibition (EphrinB2-EphB2 [2]; read-out: Association (% Inhibited (AUC))): 62.5%
inhibition (EphrinB2-EphB2 [2]; read-out: Association + Dissociation (% Inhibited (AUC))): 78.7%
Structure (SMILES): Oc1c(Br)cc(CN2CCN(c3ccc(Br)cc3)CC2)c2cccnc12 [Compound 28, 7-bromo-5-((4-(4-bromophenyl)piperazin-1-yl)methyl)quinolin-8-ol]
disruption of unsurmountable tetramer (EphrinB2-EphB2 [1]; 0.8-3.2 μM): complete loss of this structure at 3.2 μM
